Test results as given in article PMC12041370, “AARS2-catalyzed lactylation induces follicle development and premature ovarian insufficiency” (Cell Death Discovery, 2025).
Numbering of substitutions follows the chain as printed. pKd: −log10 of the molar value.

Columns and labels:
AARS2 [1] = biological target: T1, AARS2 (Homo sapiens, UniProt Q5JTZ9, R199C); test: isothermal titration calorimetry (Microcal); assay type: binding; details: read-out: K
T1 construct: full-length human AARS2 985 aa
T1 sequence (Q5JTZ9 11-985 R199C): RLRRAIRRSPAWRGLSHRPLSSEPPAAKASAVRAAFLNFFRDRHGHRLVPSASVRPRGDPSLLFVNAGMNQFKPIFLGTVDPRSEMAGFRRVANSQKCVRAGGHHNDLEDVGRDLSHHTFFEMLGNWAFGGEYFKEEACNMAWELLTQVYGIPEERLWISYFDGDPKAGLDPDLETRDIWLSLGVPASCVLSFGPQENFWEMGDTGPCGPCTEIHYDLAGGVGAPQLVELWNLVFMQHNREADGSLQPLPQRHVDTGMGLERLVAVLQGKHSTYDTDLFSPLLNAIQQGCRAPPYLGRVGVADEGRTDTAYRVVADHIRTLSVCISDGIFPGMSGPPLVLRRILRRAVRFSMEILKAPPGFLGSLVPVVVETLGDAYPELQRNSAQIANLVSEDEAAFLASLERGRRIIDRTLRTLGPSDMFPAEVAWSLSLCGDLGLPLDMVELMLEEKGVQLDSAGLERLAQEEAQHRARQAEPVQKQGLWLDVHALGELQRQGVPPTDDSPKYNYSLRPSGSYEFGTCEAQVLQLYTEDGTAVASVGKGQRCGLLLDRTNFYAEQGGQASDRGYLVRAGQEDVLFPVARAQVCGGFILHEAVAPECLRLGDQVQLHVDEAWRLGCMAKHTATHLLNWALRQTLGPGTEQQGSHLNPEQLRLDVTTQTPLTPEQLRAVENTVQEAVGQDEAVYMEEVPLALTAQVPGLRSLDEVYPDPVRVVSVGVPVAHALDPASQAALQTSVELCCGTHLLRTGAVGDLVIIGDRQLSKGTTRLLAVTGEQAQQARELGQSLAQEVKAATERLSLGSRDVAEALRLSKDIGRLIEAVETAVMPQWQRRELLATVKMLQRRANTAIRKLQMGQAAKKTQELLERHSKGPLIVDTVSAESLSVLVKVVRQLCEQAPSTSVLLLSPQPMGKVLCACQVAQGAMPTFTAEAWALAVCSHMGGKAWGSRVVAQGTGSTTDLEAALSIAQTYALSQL
Text: isothermal titration calorimetry (Microcal) on AARS2 | For lactate binding to the R199C mutant, the parameters were as follows

AARS2 [2] = biological target: T2, AARS2 (Homo sapiens, UniProt Q5JTZ9); test: isothermal titration calorimetry (Microcal); assay type: binding; details: read-out: K
T2 construct: full-length human AARS2 985 aa
T2 sequence (Q5JTZ9 11-985): T1 sequence (Q5JTZ9 11-985 R199C) with C189R
Text: isothermal titration calorimetry (Microcal) on AARS2 | The parameters of lactate binding to AARS2 were as follows

AARS2 [3] = biological target: T2, AARS2; test: in vitro lactylation of PDHA1 and CPT2, Western blot; assay type: biochemical; details: β-alanine in reaction mix, concentration not told

Compound	pKd (AARS2 [1])	pKd (AARS2 [2])	inhibition (AARS2 [3])
C[C@H](O)C(=O)O [lactate]	5.43 to 5.59	4.75 to 5.08	
NCCC(=O)O [β-alanine]			β-alanine inactivated lactyltransferase activities of both AARS2 and R199C
